Molecular target: ATP-sensitive inward rectifier potassium channel 1 (Homo sapiens) (UniProt P48048)
Assay: PubChem AID 1922
Details: HEK-293 ROMK whole-cell patch clamp, % block, stronger effect = higher value

Sequence of ATP-sensitive inward rectifier potassium channel 1 (Homo sapiens) (P48048 whole entry, looked up): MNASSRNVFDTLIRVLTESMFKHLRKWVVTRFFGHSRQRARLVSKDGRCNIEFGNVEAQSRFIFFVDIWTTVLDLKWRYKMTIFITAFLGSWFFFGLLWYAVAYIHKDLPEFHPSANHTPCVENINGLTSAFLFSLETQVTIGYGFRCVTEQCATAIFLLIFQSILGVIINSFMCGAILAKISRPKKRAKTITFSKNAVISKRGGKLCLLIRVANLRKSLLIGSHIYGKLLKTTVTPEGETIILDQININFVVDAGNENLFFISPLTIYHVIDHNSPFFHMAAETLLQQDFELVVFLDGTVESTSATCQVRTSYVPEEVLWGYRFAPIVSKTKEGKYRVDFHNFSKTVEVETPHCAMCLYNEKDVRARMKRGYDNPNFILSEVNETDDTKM

Compound: O=[N+]([O-])c1ccc(CN2CCOCCOCCN(Cc3ccc([N+](=O)[O-])cc3)CCOCC2)cc1
- inhibition (ROMK block, at 1 µM): 63.4%
- inhibition (ROMK block, at 3 µM): 78.2%
- inhibition (at 10 µM): 95.3%

Compound: O=[N+]([O-])c1ccc2nc(COCc3nc4ccc([N+](=O)[O-])cc4[nH]3)[nH]c2c1
- inhibition (ROMK block, at 1 µM): 62.6%
- inhibition (ROMK block, at 3 µM): 78.3%
- inhibition (at 10 µM): 88.7%

From PubChem BioAssay AID1922 (Vanderbilt High Throughput Screening Facility, 2009)
